Patent US20230192701A1, “BICYCLIC KINASE INHIBITORS AND USES THEREOF” (iOmx Therapeutics AG, priority 2020, published 2023)

Legend:
[1] = system: HCT116 tumour cells; test: TNF-sensitised cell viability assay (CellTiter-Glo), HCT116; format: cell-based, human; settings: for IC50: Homo sapiens, HCT-116, read-out: HCT116 IC50 (at 10 ng/ml rHuTNF), 10 ng/ml rHuTNF, 72 h; for sensitisation of HCT116 tumour cells to the cytotoxic effect of TNF compared to PY1: in words
Protocol: (§1) Cell viability of HCT116 tumour cells was measured using the CellTiter-Glo (CTG) luminescent cell viability assay (Promega, Madison, USA) according to the manufacturer's protocol. In short, 1×10^3 HCT116 cells were seeded in a 384-well plate for 24 h and subsequently treated with different concentrations of compounds and 10 ng/ml rHuTNF for 72 h at 37° C. and 5% CO2. After incubation, CTG reagent was added to the wells and cells were lysed for 10 min. Read-out was performed using the Tecan reader with 0.1 sec counting time. TNF-induced cell killing in human PANC1 and murine MC38 tumour cells was measured analogously to the assay in human HCT116 cells, except that for the PANC1 assay 100 ng/ml rHuTNF and for the MC38 assay 100 ng/ml rMuTNF were used.

[2] = biological target: SIK2 (Homo sapiens, UniProt Q9H0K1); test: radiometric protein kinase assay (33PanQinase Activity Assay), SIK2; format: biochemical; settings: for IC50: ATP 1.0 μM, substrate RBER-CHKtide; for inhibiting SIK2 compared to PY1: in words
Sequence of SIK2 (Q9H0K1 whole entry): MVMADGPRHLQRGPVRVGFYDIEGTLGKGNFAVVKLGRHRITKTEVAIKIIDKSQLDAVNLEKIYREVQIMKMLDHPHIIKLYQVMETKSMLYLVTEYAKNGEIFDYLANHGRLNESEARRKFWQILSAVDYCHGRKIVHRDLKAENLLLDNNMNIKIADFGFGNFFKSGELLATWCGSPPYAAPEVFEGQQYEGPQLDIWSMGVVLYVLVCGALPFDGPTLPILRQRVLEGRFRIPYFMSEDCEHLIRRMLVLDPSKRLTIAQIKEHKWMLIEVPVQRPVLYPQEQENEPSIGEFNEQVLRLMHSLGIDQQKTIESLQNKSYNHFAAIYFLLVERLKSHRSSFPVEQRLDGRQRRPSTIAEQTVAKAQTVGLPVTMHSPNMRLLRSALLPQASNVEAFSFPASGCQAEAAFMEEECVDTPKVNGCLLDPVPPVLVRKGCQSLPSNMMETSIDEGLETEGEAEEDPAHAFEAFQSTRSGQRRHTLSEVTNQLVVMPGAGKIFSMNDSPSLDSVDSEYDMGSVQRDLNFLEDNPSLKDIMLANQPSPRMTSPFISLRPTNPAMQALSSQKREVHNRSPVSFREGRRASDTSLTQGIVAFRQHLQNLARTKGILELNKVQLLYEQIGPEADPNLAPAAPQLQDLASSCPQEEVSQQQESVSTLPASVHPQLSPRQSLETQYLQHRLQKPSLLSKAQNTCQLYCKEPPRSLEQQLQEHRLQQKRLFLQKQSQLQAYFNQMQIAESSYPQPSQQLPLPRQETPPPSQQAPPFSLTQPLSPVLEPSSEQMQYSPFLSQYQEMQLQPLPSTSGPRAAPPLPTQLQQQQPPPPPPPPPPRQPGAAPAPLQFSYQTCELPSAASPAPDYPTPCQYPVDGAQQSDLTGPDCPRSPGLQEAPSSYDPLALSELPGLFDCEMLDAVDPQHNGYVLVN
Protocol: (§2) The IC50s of the compounds against the SIK family of protein-serine/threonine kinases (SIK2 and SIK3) were determined as followed. Briefly, a radiometric protein kinase assay (33PanQinase® Activity Assay) was used for measuring the kinase activity of the two protein kinases. The kinase assays were performed in 96-well FlashPlates™ from PerkinElmer (Boston, Mass., USA) in a 50 uL reaction volume. The reaction cocktail was pipetted in four steps in the following order: • […] (standard buffer/[gamma-33P]-ATP) • 10 uL of ATP solution (in water) • 5 uL of test compound (in 10% DMSO) • 20 uL enzyme/substrate mix
(§3) The following amounts of enzyme and applicable substrate were used per well:
(§4) The reaction cocktails were incubated at 30 °C for 60 minutes. The reaction was stopped with 50 uL of 2% (v/v) H3PO4, plates were aspirated and washed two times with 200 μL 0.9% (w/v) NaCl. Incorporation of 33Pi was determined with a microplate scintillation counter (Microbeta, Wallac). All assays were performed with a BeckmanCoulter/SAGIAN™ Core System.

[3] = system: MC38 tumour cells; test: TNF-sensitised cell viability assay (CellTiter-Glo), MC38; format: cell-based, murine; settings: for IC50: Mus musculus, MC-38, read-out: MC38 IC50 (at 100 ng/ml rMuTNF), 100 ng/ml rMuTNF, 72 h
Protocol: as §1

[4] = biological target: SIK3 (Homo sapiens, UniProt Q9Y2K2); test: radiometric protein kinase assay (33PanQinase Activity Assay), SIK3; format: biochemical; settings: for IC50: ATP 1.0 μM, substrate RBER-CHKtide; for inhibiting SIK3 compared to PY1 / selectivity towards SIK3 over SIK2: in words
Sequence of SIK3 (Q9Y2K2 whole entry): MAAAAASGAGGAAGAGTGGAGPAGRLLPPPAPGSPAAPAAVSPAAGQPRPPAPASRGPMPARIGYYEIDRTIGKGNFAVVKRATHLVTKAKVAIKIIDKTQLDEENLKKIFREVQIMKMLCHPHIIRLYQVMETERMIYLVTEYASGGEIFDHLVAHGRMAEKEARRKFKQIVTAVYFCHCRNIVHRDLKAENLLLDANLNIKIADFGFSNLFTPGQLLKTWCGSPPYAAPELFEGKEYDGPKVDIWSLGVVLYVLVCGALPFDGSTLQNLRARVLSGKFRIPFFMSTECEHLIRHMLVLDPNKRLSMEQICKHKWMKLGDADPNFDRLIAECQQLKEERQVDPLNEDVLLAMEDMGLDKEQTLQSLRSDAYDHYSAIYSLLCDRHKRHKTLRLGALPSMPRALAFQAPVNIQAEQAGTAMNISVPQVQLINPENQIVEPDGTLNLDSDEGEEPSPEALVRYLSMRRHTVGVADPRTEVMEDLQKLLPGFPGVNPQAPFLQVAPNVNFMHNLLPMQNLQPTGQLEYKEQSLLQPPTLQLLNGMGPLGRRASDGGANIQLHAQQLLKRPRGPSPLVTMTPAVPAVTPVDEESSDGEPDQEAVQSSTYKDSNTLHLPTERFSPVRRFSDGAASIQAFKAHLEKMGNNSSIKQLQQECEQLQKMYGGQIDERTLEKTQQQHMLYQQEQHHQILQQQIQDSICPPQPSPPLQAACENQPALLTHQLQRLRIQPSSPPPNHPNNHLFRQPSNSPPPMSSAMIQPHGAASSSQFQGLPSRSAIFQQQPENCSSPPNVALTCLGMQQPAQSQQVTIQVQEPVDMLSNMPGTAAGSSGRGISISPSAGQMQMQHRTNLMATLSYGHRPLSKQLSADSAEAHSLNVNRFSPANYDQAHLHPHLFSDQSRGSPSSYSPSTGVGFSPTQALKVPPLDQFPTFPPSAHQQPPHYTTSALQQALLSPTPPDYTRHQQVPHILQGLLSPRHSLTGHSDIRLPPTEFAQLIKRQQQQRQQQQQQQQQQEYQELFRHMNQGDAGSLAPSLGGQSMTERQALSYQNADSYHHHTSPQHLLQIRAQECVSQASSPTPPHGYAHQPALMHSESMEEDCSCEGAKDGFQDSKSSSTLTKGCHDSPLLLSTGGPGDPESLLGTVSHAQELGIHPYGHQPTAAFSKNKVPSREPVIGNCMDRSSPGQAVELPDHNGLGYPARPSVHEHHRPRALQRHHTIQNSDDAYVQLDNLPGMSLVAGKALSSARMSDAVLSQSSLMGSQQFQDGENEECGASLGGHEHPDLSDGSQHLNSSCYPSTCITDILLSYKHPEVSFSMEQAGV
Protocol: as §2, §3, §4

[5] = system: PANC1 tumour cells; test: TNF-sensitised cell viability assay (CellTiter-Glo), PANC1; format: cell-based, human; settings: for IC50: Homo sapiens, PANC-1, read-out: PANC IC50 (at 100 ng/ml rHuTNF), 100 ng/ml rHuTNF, 72 h; for sensitisation of PANC tumour cells to the cytotoxic effects of TNF compared to PY1: in words
Protocol: as §1

[6] = biological target: 335 wild-type protein kinases; test: single-point inhibition assays, residual activity (ProQinase Kinase Profiler); format: biochemical; settings: single-point 0.1 uM and 1 uM, 335 kinases
Protocol: Several compounds of Formula (I) described herein were also tested in single-point (0.1 uM and 1 uM) inhibition assays over a diverse set of 335 wild-type protein (ProQinase “Kinase Profiler”; ProQinase, Freiburg, Germany), in which the residual activity of each kinase was determined. […] Secondly, the residual activity of each kinase was compared to other compounds tested (in particular, against the prior art compounds PY1) by use of scatter plots.

SMILES	IC50 [2]	IC50 [4]	kinases inhibited less strongly than by PY1 [6]	IC50 [1]	inhibiting SIK2 compared to PY1 [2]	IC50 [3]	inhibiting SIK3 compared to PY1 [4]	selectivity towards SIK3 over SIK2 [4]	sensitisation of HCT116 tumour cells to the cytotoxic effect of TNF compared to PY1 [1]	IC50 [5]	sensitisation of MC38 tumour cells to the cytotoxic effect of TNF ([3]; in words)	sensitisation of PANC tumour cells to the cytotoxic effects of TNF compared to PY1 [5]	kinases inhibited more strongly than by PY1 [6]	overall kinase profile compared to prior art compound PY1 [6]
COCCN1C(=O)N(c2c(CF)csc2Cl)Cc2cnc(Nc3ccc(C4CCN(C)CC4)cc3OC)nc21 [AA12, 3-(2-chloro-4-(fluoromethyl)thiophen-3-yl)-7-((2-methoxy-4-(1-methylpiperidin-4-yl)phenyl)amino)-1-(2-methoxyethyl)-3,4-dihydropyrimido[4,5-d]pyrimidin-2(1H)-one]	< 50 nM	< 50 nM	–	> 1500 nM	superior in inhibiting SIK2 and SIK3 compared to PY1	1000 to 1500 nM	superior in inhibiting SIK2 and SIK3 compared to PY1	increased selectively towards SIK3 over SIK2	–	–	–	–	–	–
COc1ccc(N2C(=O)N(c3c(CF)csc3Cl)Cc3cnc(Nc4ccc(C5CCN(C)C(C)C5)cc4)nc32)nc1 (stereo not drawn) [AA9, 3-(2-chloro-4-(fluoromethyl)thiophen-3-yl)-7-((4-(l,2-dimethylpiperidin-4-yl)phenyl)amino)-1-(5-methoxypyridin-2-yl)-3,4-dihydropyrimido[4,5-d]pyrimidin-2(1H)-one]	< 50 nM	< 50 nM	–	< 100 nM	superior in inhibiting SIK2 and SIK3 compared to PY1	500 to 1000 nM	superior in inhibiting SIK2 and SIK3 compared to PY1	–	much stronger effect compared to the prior art compound PY1	500 to 1000 nM	–	–	–	–
COc1ccc(N2C(=O)N(c3c(CF)csc3Cl)Cc3cnc(Nc4ccc(C5CC(C)N(C)C(C)C5)cc4)nc32)nc1 (stereo not drawn) [AA8, 3-(2-chloro-4-(fluoromethyl)thiophen-3-yl)-1-(5-methoxypyridin-2-yl)-7-((4-(l,2,6-trimethylpiperidin-4-yl)phenyl)amino)-3,4-dihydropyrimido[4,5-d]pyrimidin-2(lH)-one]	< 50 nM	< 50 nM	–	< 100 nM	superior in inhibiting SIK2 and SIK3 compared to PY1	500 to 1000 nM	superior in inhibiting SIK2 and SIK3 compared to PY1	–	much stronger effect compared to the prior art compound PY1	100 to 500 nM	–	stronger effect than PY1	–	–
COc1ccc(N2C(=O)N(c3c(C)nn(C)c3C)Cc3cnc(Nc4ccc(C5CCN(C)CC5)cc4OC)nc32)nc1 [AA4, 7-((2-methoxy-4-(l-methylpiperidin-4-yl)phenyl)amino)-1-(5-methoxypyridin-2-yl)-3-(1,3,5-trimethyl-lH-pyrazol-4-yl)-3,4-dihydropyrimido[4,5-d]pyrimidin-2(1H)-one]	5000 to 10000 nM	> 10000 nM	–	–	–	–	–	–	–	–	–	–	–	–

Continued, in another order:

IC50 [2]	IC50 [4]	kinases inhibited less strongly than by PY1 [6]	SMILES	IC50 [1]	inhibiting SIK2 compared to PY1 [2]	IC50 [3]	inhibiting SIK3 compared to PY1 [4]	selectivity towards SIK3 over SIK2 [4]	sensitisation of HCT116 tumour cells to the cytotoxic effect of TNF compared to PY1 [1]	IC50 [5]	sensitisation of MC38 tumour cells to the cytotoxic effect of TNF ([3]; in words)	sensitisation of PANC tumour cells to the cytotoxic effects of TNF compared to PY1 [5]	kinases inhibited more strongly than by PY1 [6]	overall kinase profile compared to prior art compound PY1 [6]
50 to 100 nM	100 to 200 nM	–	COc1ccc(N2C(=O)N(c3c(CF)csc3Cl)Cc3cnc(Nc4ccc(C5CCN(C)CC5)cc4OC)nc32)nc1 [AA7, 3-(2-chloro-4-(fluoromethyl)thiophen-3-yl)-7-((2-methoxy-4-(l-methylpiperidin-4-yl)phenyl)amino)-1-(5-methoxypyridin-2-yl)-3,4-dihydropyrimido[4,5-d]pyrimidin-2(1H)-one]	< 100 nM	–	100 to 500 nM	–	–	much stronger effect compared to the prior art compound PY1	100 to 500 nM	surprisingly potent at sensitising cells to the cytotoxic effect of TNF	stronger effect than PY1	–	–
100 to 200 nM	100 to 200 nM	–	COc1ccc(N2C(=O)N(c3c(C(F)F)csc3Cl)Cc3cnc(Nc4ccc(C5CCN(C)CC5)cc4OC)nc32)nc1 [AA13, 3-(2-chloro-4-(difluoromethyl)thiophen-3-yl)-7-((2-methoxy-4-(1-methylpiperidin-4-yl)phenyl)amino)-1-(5-methoxypyridin-2-yl)-3,4-dihydropyrimido[4,5-d]pyrimidin-2(1H)-one]	> 1500 nM	–	1000 to 1500 nM	–	increased selectively towards SIK3 over SIK2	–	> 1500 nM	–	–	–	–
100 to 200 nM	< 50 nM	BMX, TEC and in particular BTK	COc1cc(C2CCN(C)CC2)ccc1Nc1ncc2c(n1)N(C)C(=O)N(c1c(CF)csc1Cl)C2 [AA11, 3-(2-chloro-4-(fluoromethyl)thiophen-3-yl)-7-((2-methoxy-4-(1-methylpiperidin-4-yl)phenyl)amino)-1-methyl-3,4-dihydropyrimido[4,5-d]pyrimidin-2(1H)-one]	> 1500 nM	–	1000 to 1500 nM	–	increased selectively towards SIK3 over SIK2	–	> 1500 nM	–	–	BRAF, NEK2, PRK2, PKC, and in particular KIT, RIPK2, ABL2 and PDGF-alpha	substantially different profile of inhibition of the kinases compared to the prior art compound PY1
50 to 100 nM	100 to 200 nM	–	COc1ccc(N2C(=O)N(c3c(CF)csc3Cl)Cc3cnc(Nc4ccc(C5CCN(C)CC5)cc4OC)nc32)cc1 [AA10, 3-(2-chloro-4-(fluoromethyl)thiophen-3-yl)-7-((2-methoxy-4-(1-methylpiperidin-4-yl)phenyl)amino)-1-(4-methoxyphenyl)-3,4-dihydropyrimido[4,5-d]pyrimidin-2(1H)-one]	1000 to 1500 nM	–	1000 to 1500 nM	–	–	–	1000 to 1500 nM	–	–	–	–
